The subject of series [1] is Chymotrypsin. In words: Inhibition of enzymatic degradation of a model GLP-1 (FRET substrate) by chymotrypsin. Type of series: biochemical. In outline:
(§1)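 Initial-rate slopes of fluorescence rise (320 nm ex, 405 nm em), fitted over the linear early phase and averaged from duplicates, were plotted against inhibitor concentration and fitted logistically to give EC50. Reactions ran at 37° C in Dulbecco's PBS, with MCA/DNP GLP-1 FRET substrate added as 10 μl of 100 μM stock.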

Series [2] deals with Trypsin. Kind of series: Inhibition of enzymatic degradation of a model GLP-1 (FRET substrate) by trypsin. In kind it is biochemical. In outline:
as §1

Series [3] relates to GI juice. In words: Inhibition of GI juice degradation of insulin analogue and GLP-1 analogue. In kind it is biochemical. To be noted: rat GI juice. On the procedure: 96 well plates were coated by incubating with 0.4% Bovine serum albumin (BSA) solution for minimum of 60 min. […] 1% TFA), 30 μl of a substrate (100 μM insulin analogue or GLP-1 analogue in buffer) and 30 μl of N-terminally acylated peptide or oligopeptide of the invention (10 mM) were added. The plates were pre-incubated (before adding GI juice) for 60 min at 37° C. After addition of 30 μl of GI juice (10-times diluted in buffer), the plates were incubated for 60 min/37° C. on shaker. […] 1% TFA and spun down in plates (4500 rpm for 10 min). Samples were diluted 5 times with the buffer prior to LC-MS analysis. Standard samples (0.1, 0.5, 1.0, 5.0, 10.0 μM) were prepared and treated as the samples. Standard curve was analysed both at the beginning and the end of the sequence. Two replicates of each tested conditions were included. Ion suppression was assessed by analyzing a standard at 1 μM and at 10 μM with 1 mM inhibitor present. Intact insulin or GLP-1 analoues were determined at each sample. The results were plotted against the incubation time. […] The half-lives were expressed relative to the half-live of the insulin or GLP-1 analogue without inhibitor present by dividing the half-lives obtained in the presence of inhibitor with those obtained in the absence of inhibitors. GI juice was prepared from male Sprague Dawley rats (200-250 g) by excising approximately 20 cm piece of mid jejunum and rinsing the inside with 2.5 ml 0.9% sodium chloride solution. The sodium chloride solution was collected in a centrifuge tube, pooled from all rats (20) and centrifuged at 4500 rpm./10 min/4° C. The supernatant was aliquoted in tubes and stored at −80° C.
A14E, B25H, B29K(N(eps)Octadecanedioyl-γGlu-OEG-OEG), desB30 human insulin and N-epsilon26-[2-(2-{2-[2-(2-{2-[(S)-4-Carboxy-4-(17-carboxyheptadecanoylamino)-butyrylamino]ethoxy}ethoxy)acetylamino]ethoxy}ethoxy)acetyl][Aib8,Arg34]GLP-1-(7-37) were used as standards in this assay.
For experiments repeated more than two times, standard deviation is given

The nature of series [4]: Hydrophobicity: retention time during reverse phase HPLC. In kind it is physicochemical. To be noted: Acquity CSH C18; pH 7.2 buffer/CH3CN gradient; 40° C. An excerpt: The retention time (RT) during reverse phase HPLC was taken as a measure of hydrophobicity of an N-terminally modified peptide or oligopeptide of the invention, where the connection is: The longer the RT, the more hydrophobic N-terminally modified peptide or oligopeptide. The following running conditions were applied during HPLC analysis:
Buffer B: 70% (v/v) aq. CH3CN

Setting [5] is: compound 0.1 mM, buffer containing 8% DMSO.

Starred links: 1 amine or outer side, 2 acyl side, 3 side chain; linkers in the order of their positions; H or OH if unused. Residues, ends and D or L forms follow the SMILES beside them. *: point of attachment. γGlu = O=C(O)[C@H](CCC(=O)[*:2])N[*:1]; Palmitoyl = CCCCCCCCCCCCCCCC(=O)*; Myristoyl = CCCCCCCCCCCCCC(=O)*; Lauroyl = CCCCCCCCCCCC(=O)*

On to `CCCCCCCCCCCCCCCC(=O)N[C@@H](CCC(=O)N[C@@H](C)C(=O)N[C@@H](C)C(=O)N1CCC[C@H]1C(=O)N[C@@H](Cc1ccccc1)C(=O)O)C(=O)O` [Example 135, N-hexadecanoyl-γGlu-Ala-Ala-Pro-Phe-OH] ({Palmitoyl-γGlu}-AAPF-OH), for which the EC50 in series [1] (read-out: EC50 Chymotrypsin (0.001 mg/ml), 0.001 mg/ml chymotrypsin, 37° C., ± standard error if at least 3 measurements) came to 45 µM. In addition, the EC50 in series [2] (read-out: EC50 Trypsin (0.001 mg/ml), 0.001 mg/ml trypsin, 37° C.) came out at 40 µM. Moreover, in series [3] (compound 1 mM), the “Half Life fold increase (over solution w/o N-terminally acylated (oligo)peptide)” value was determined as 3.8. Besides, in series [3] (compound 1 mM, 37° C.), the “Half Life of GLP-1 analogue” value is on record as 0.9 min and the “Half Life of insulin analogue” value is 9.2 min. In series [4], the “RT (retention time during reverse phase HPLC as a measure of hydrophobicity)” value (shortened to “RT”) is on record as 7.5 min.
Consider `CCCCCCCCCCCCCC(=O)N[C@@H](CCC(=O)O)C(=O)N[C@@H](C)C(=O)N[C@@H](C)C(=O)N1CCC[C@H]1C(=O)N[C@@H](Cc1ccccc1)C(=O)O` [Example 13, N-tetradecanoyl-Glu-Ala-Ala-Pro-Phe-OH] (Myristoyl-EAAPF-OH), for which the “Slope of the initial increase in fluorescence obtained during incubation with 0.001 mg/ml Chymotrypsin” value in series [1] (compound 1 mM) turned out to be 0.00. The “Slope of the initial increase in fluorescence obtained during incubation with 0.001 mg/ml Trypsin” value in series [2] (compound 1 mM) is recorded as 0.12. For the same molecule, the “Half Life fold increase (over solution w/o N-terminally acylated (oligo)peptide)” value in series [3] (compound 1 mM) turned out to be 3.4. For the same molecule, the “Half Life of insulin analogue” value in series [3] (compound 1 mM, 37° C.) worked out at 7.2 min. Besides, the “RT” value in series [4] came to 5.19 min.
As to “N-dodecanoyl-Ala-Ala-Ile-Tyr-OH (Lauroyl-AAIY-OH; SMILES CCCCCCCCCCCC(=O)N[C@@H](C)C(=O)N[C@@H](C)C(=O)N[C@H](C(=O)N[C@@H](Cc1ccc(O)cc1)C(=O)O)[C@@H](C)CC) [Example 65]”, the “Slope of the initial increase in fluorescence obtained during incubation with 0.001 mg/ml Chymotrypsin” value in series [1] (setting [5]) is on record as 2.04. Besides, in series [2] (setting [5]), the “Slope of the initial increase in fluorescence obtained during incubation with 0.001 mg/ml Trypsin” value is reported as 1.60. The “RT” value in series [4] worked out at 3.12 min.
On to “N-dodecanoyl-Ala-Asp-Pro-Tyr-OH (Lauroyl-ADPY-OH; SMILES CCCCCCCCCCCC(=O)N[C@@H](C)C(=O)N[C@@H](CC(=O)O)C(=O)N1CCC[C@H]1C(=O)N[C@@H](Cc1ccc(O)cc1)C(=O)O) [Example 75]”, for which the “Slope of the initial increase in fluorescence obtained during incubation with 0.001 mg/ml Chymotrypsin” value in series [1] (setting [5]) is reported as 1.77. Besides, the “Slope of the initial increase in fluorescence obtained during incubation with 0.001 mg/ml Trypsin” value in series [2] (setting [5]) came to 1.81. In addition, in series [4], the “RT” value is on record as 4.2 min.
The like results for “N-dodecanoyl-Ser-Ala-Pro-Tyr-OH (Lauroyl-SAPY-OH; SMILES CCCCCCCCCCCC(=O)N[C@@H](CO)C(=O)N[C@@H](C)C(=O)N1CCC[C@H]1C(=O)N[C@@H](Cc1ccc(O)cc1)C(=O)O) [Example 51]” were, in that order, 0.41, 1.66 and 5.2 min.
Turning to “N-dodecanoyl-Arg-Ala-Pro-Tyr-OH (Lauroyl-RAPY-OH; SMILES CCCCCCCCCCCC(=O)N[C@@H](CCCNC(=N)N)C(=O)N[C@@H](C)C(=O)N1CCC[C@H]1C(=O)N[C@@H](Cc1ccc(O)cc1)C(=O)O) [Example 92]”, the “Slope of the initial increase in fluorescence obtained during incubation with 0.001 mg/ml Chymotrypsin” value in series [1] (setting [5]) turned out to be 0.23. The “Slope of the initial increase in fluorescence obtained during incubation with 0.001 mg/ml Trypsin” value in series [2] (setting [5]) worked out at 1.44. Moreover, in series [4], the “RT” value is 4.84 min.

B1: Soya bean trypsin inhibitor: soya bean trypsin inhibitor (Kunitz type, SBTI), protease inhibitor described in the public domain (protein, UniProt P01070 25-205, looked up)
Trypsin inhibitor A: DFVLDNEGNPLENGGTYYILSDITAFGGIRAAPTGNERCPLTVVQSRNELDKGIGTIISSPYRIRFIAEGHPLSLKFDSFAVIMLCVGIPTEWSVVEDLPEGPAVKIGENKDAMDGWFRLERVSDDEFNNYKLVFCPQQAEDDKCGDIGISIDHDDGTRRLVVSKNKPLVVQFQKLDKESL
With B1, in series [3] (inhibitor 0.1%, ± standard deviation), the “Half Life of insulin analogue” value is 505.3 ± 309.2 min.
